Results reported in ChEMBL document CHEMBL1140261, “Novel 1-[2-(diarylmethoxy)ethyl]-2-methyl-5-nitroimidazoles as HIV-1 non-nucleoside reverse transcriptase inhibitors. A structure-activity relationship investigation” (J Med Chem, 2005).

Tests used:
MT4 [1] = assay: Concentration required to protect MT-4 cells from HIV-1 induced cytopathogenicity by 50%; determined by MTT method; assay type: functional, cell-based; conditions: Homo sapiens
MT4 [2] = assay: (§1) Selective index as the ratio of CC50 and EC50; assay type: functional
MT4 [3] = assay: Concentration required to reduce the viability of mock-infected cells by 50%; determined by MTT method.; assay type: functional; conditions: Homo sapiens
[4] = system: Human immunodeficiency virus type 1 reverse transcriptase (Human immunodeficiency virus 1), Q72547 [R221A]
Description: Dose required to inhibit HIV-1 reverse transcriptase activity (Y188L mutant) by 50%

[5] = system: Human immunodeficiency virus type 1 reverse transcriptase (Human immunodeficiency virus 1), Q72547 [L100I]
Description: Dose required to inhibit HIV-1 reverse transcriptase activity ( L100I mutant) by 50%

[6] = system: Human immunodeficiency virus type 1 reverse transcriptase (Human immunodeficiency virus 1), Q72547 [K103N]
[7] = system: Human immunodeficiency virus type 1 reverse transcriptase (Human immunodeficiency virus 1), Q72547 [V179D]
Description: Dose required to inhibit HIV-1 reverse transcriptase activity (V179D mutant) by 50%

[8] = system: Human immunodeficiency virus type 1 reverse transcriptase (Human immunodeficiency virus 1), Q72547 [Y181I]
[9] = target: Human immunodeficiency virus type 1 reverse transcriptase (Human immunodeficiency virus 1) (UniProt Q72547)
Description: Dose required to inhibit HIV-1 reverse transcriptase activity (wild-type) by 50%

[10] = system: Human immunodeficiency virus type 1 reverse transcriptase (Human immunodeficiency virus 1), Q72547 [K103N]; assay: Dose required to inhibit HIV-1 reverse transcriptase activity (K103N mutant) by 50%
[11] = system: Human immunodeficiency virus type 1 reverse transcriptase (Human immunodeficiency virus 1), Q72547 [L100I]; assay: Dose required to inhibit HIV-1 reverse transcriptase activity (L100I mutant) by 50%
[12] = target: T1, Human immunodeficiency virus type 1 reverse transcriptase (Human immunodeficiency virus 1, UniProt Q72547); assay: Concentration required to inhibit HIV-1 reverse transcriptase activity (wild-type) by 50%; assay type: functional
MT4 [13] = assay: as §1; assay type: functional, Human immunodeficiency virus 1
[14] = target: T1, Human immunodeficiency virus type 1 reverse transcriptase; assay: Concentration required to inhibit HIV-1 reverse transcriptase activity (wild-type) enzyme
[15] = target: Human immunodeficiency virus type 1 reverse transcriptase (Human immunodeficiency virus 1) (UniProt Q72547); assay: Dose required to inhibit HIV-1 reverse transcriptase activity of wild-type enzyme by 50%
[16] = target: T1, Human immunodeficiency virus type 1 reverse transcriptase; assay: Concentration required to inhibit HIV-1 reverse transcriptase activity of wild-type enzyme; assay type: functional

Cc1ncc([N+](=O)[O-])n1CCNC(c1ccccc1)c1cccc(Cl)c1 (stereo unspecified)
EC50 (MT4 [1]): 2.1 µM
SI (MT4 [2]): >47.6
CC50 (MT4 [3]): > 100 µM

Cc1ncc([N+](=O)[O-])n1CCOCc1ccccc1
EC50 (MT4 [1]): 4.2 µM
SI (MT4 [2]): >2.38
CC50 (MT4 [3]): > 100 µM

O=[N+]([O-])c1cn(CCOC(c2ccccc2)c2ccccc2)cn1
EC50 (MT4 [1]): 78 µM
SI (MT4 [2]): >1.3
CC50 (MT4 [3]): > 100 µM

Cc1ncc([N+](=O)[O-])n1CCOC(c1ccc(Cl)cc1)c1cccs1 (stereo unspecified)
EC50 (MT4 [1]): 58 µM
SI (MT4 [2]): >1.7
CC50 (MT4 [3]): > 100 µM

Cc1ncc([N+](=O)[O-])n1CCNC(c1ccccc1)c1ccc(F)cc1 (stereo unspecified)
EC50 (MT4 [1]): 92 µM
SI (MT4 [2]): >1.1
CC50 (MT4 [3]): > 100 µM

Cc1ncc([N+](=O)[O-])n1CCNC(c1ccccc1)c1ccccc1Cl (stereo unspecified)
EC50 (MT4 [1]): 90 µM
SI (MT4 [2]): >1.1
CC50 (MT4 [3]): > 100 µM

O=[N+]([O-])c1cncn1CCOC(c1ccccc1)c1ccccc1
EC50 (MT4 [1]): > 100 µM
CC50 (MT4 [3]): > 100 µM

Cc1ncc([N+](=O)[O-])n1CCSC(c1ccccc1)c1ccccc1F (stereo unspecified)
EC50 (MT4 [1]): 5 µM
SI (MT4 [2]): >20
CC50 (MT4 [3]): > 100 µM

Cc1ncc([N+](=O)[O-])n1CCOC(c1ccccc1)C1CCCCC1 (stereo unspecified)
EC50 (MT4 [1]): 0.3 µM
SI (MT4 [2]): >333.3
CC50 (MT4 [3]): > 100 µM

Cc1ccnc2c1NC(=O)c1cccnc1N2C1CC1
ID50 [4]: 18 µM
ID50 [5]: 9 µM
ID50 [6]: 7 µM
ID50 [7]: 0.3 µM
ID50 [8]: 36 µM
ID50 [9]: 0.4 µM

Cc1ncc([N+](=O)[O-])n1CCOC(c1cccs1)c1ccccc1Cl (stereo unspecified)
EC50 (MT4 [1]): 1.9 µM
SI (MT4 [2]): >52.6
CC50 (MT4 [3]): > 100 µM

Cc1ncc([N+](=O)[O-])n1CCNC(c1ccccc1)c1cccc(F)c1 (stereo unspecified)
EC50 (MT4 [1]): 1.8 µM
SI (MT4 [2]): >55.6
CC50 (MT4 [3]): > 100 µM

Cc1ncc([N+](=O)[O-])n1CCOC(c1cccc(Cl)c1)c1cccs1 (stereo unspecified)
ID50 [10]: 5.1 µM
ID50 [11]: 3.2 µM
EC50 (MT4 [1]): 0.08 µM
SI (MT4 [2]): 900
CC50 (MT4 [3]): 72 µM
ID50 [4]: 15.1 µM
ID50 [7]: 10.8 µM
ID50 [8]: 6.25 µM
ID50 [9]: 1.17 µM

Cc1ncc([N+](=O)[O-])n1CCNC(c1ccccc1)c1ccccc1
EC50 (MT4 [1]): 12 µM
EC50 [12]: 8 µM
SI (MT4 [2]): >8.3
CC50 (MT4 [3]): > 100 µM
ID50 [9]: 16.5 µM

Cc1ncc([N+](=O)[O-])n1CCSC(c1ccccc1)c1ccccc1Cl (stereo unspecified)
EC50 (MT4 [1]): 12 µM
SI (MT4 [2]): >8.3
CC50 (MT4 [3]): > 100 µM

Cc1ncc([N+](=O)[O-])n1CCS(=O)(=O)C(c1ccccc1)c1ccccc1
EC50 (MT4 [1]): 5.2 µM
SI (MT4 [2]): >19.3
CC50 (MT4 [3]): > 100 µM

Cc1ncc([N+](=O)[O-])n1CCOC(c1ccccc1)c1ccc2ccccc2c1 (stereo unspecified)
EC50 (MT4 [1]): > 100 µM
CC50 (MT4 [3]): > 100 µM

Cc1ncc([N+](=O)[O-])n1CCOC(c1ccccc1)c1cccs1 (stereo unspecified)
SI (MT4 [13]): >3333
EC50 [14]: 30 nM
EC50 (MT4 [1]): 0.03 µM
CC50 (MT4 [3]): > 100 µM
ID50 [4]: 30.2 µM
ID50 [5]: 5.5 µM
ID50 [6]: 8.25 µM
ID50 [7]: 1.9 µM
ID50 [8]: > 50 µM
ID50 [9]: 0.37 µM

Cc1ncc([N+](=O)[O-])n1CCOC(c1ccccc1)c1ccccc1
SI (MT4 [2]): >500
CC50 (MT4 [3]): > 100 µM

Cc1ncc([N+](=O)[O-])n1CCOC(c1ccccc1)c1ccc(Cl)s1 (stereo unspecified)
EC50 (MT4 [1]): 1.2 µM
SI (MT4 [2]): 8.33
CC50 (MT4 [3]): > 100 µM

Cc1ncc([N+](=O)[O-])n1CCSCc1ccccc1
EC50 (MT4 [1]): 60 µM
SI (MT4 [2]): >1.7
CC50 (MT4 [3]): > 100 µM

Cc1ncc([N+](=O)[O-])n1CCOC(c1cccs1)c1ccccc1F (stereo unspecified)
EC50 (MT4 [1]): 0.12 µM
SI (MT4 [2]): >833
CC50 (MT4 [3]): > 100 µM

Cc1ccc(C(NCCn2c([N+](=O)[O-])cnc2C)c2ccccc2)cc1 (stereo unspecified)
EC50 (MT4 [1]): 44 µM
SI (MT4 [2]): >2.3
CC50 (MT4 [3]): > 100 µM

Cc1cccc(C(NCCn2c([N+](=O)[O-])cnc2C)c2ccccc2)c1 (stereo unspecified)
EC50 (MT4 [1]): 65 µM
SI (MT4 [2]): >1.5
CC50 (MT4 [3]): > 100 µM

Cc1ncc([N+](=O)[O-])n1CCOC(c1ccc(F)cc1)c1cccs1 (stereo unspecified)
EC50 (MT4 [1]): 3.1 µM
SI (MT4 [2]): >32.3
CC50 (MT4 [3]): > 100 µM

Cc1ncc([N+](=O)[O-])n1CCOC(c1ccccc1)c1ccco1 (stereo unspecified)
EC50 (MT4 [1]): 0.1 µM
SI (MT4 [2]): >840
CC50 (MT4 [3]): > 100 µM

Cc1cccc(C(SCCn2c([N+](=O)[O-])cnc2C)c2ccccc2)c1 (stereo unspecified)
EC50 (MT4 [1]): 3 µM
SI (MT4 [2]): >33.3
CC50 (MT4 [3]): > 100 µM

Cc1ncc([N+](=O)[O-])n1CCSC(c1ccccc1)c1cccc(Cl)c1 (stereo unspecified)
EC50 (MT4 [1]): 64 µM
SI (MT4 [2]): >1.6
CC50 (MT4 [3]): > 100 µM

Cc1ncc([N+](=O)[O-])n1CCSC(c1ccccc1)c1ccccc1
ID50 [15]: 10.6%
EC50 [16]: 2300 nM
EC50 (MT4 [1]): 1.2 µM
SI (MT4 [2]): >83.5
CC50 (MT4 [3]): > 100 µM

Cc1ncc([N+](=O)[O-])n1CCNCc1ccccc1
EC50 (MT4 [1]): > 100 µM
CC50 (MT4 [3]): > 100 µM

Cc1ncc([N+](=O)[O-])n1CCOC(c1ccccc1)c1cccnc1 (stereo unspecified)
EC50 (MT4 [1]): 0.08 µM
SI (MT4 [2]): >1250
CC50 (MT4 [3]): > 100 µM

Cc1ncc([N+](=O)[O-])n1CCNC(c1ccccc1)c1ccccc1F (stereo unspecified)
EC50 (MT4 [1]): 50 µM
SI (MT4 [2]): >2
CC50 (MT4 [3]): > 100 µM

Cc1ncc([N+](=O)[O-])n1CCOC(c1cccs1)c1cccc(F)c1F (stereo unspecified)
EC50 (MT4 [1]): 0.06 µM
SI (MT4 [2]): >1667
CC50 (MT4 [3]): > 100 µM

Cc1ccc(C(OCCn2c([N+](=O)[O-])cnc2C)c2cccs2)cc1 (stereo unspecified)
EC50 (MT4 [1]): 0.3 µM
SI (MT4 [2]): >3333
CC50 (MT4 [3]): > 100 µM

Cc1ncc([N+](=O)[O-])n1CCN(Cc1ccccc1)C1CCCCC1
EC50 (MT4 [1]): 84 µM
SI (MT4 [2]): >1.2
CC50 (MT4 [3]): > 100 µM

Cc1nc([N+](=O)[O-])cn1CCOCc1ccccc1
EC50 (MT4 [1]): 22 µM
SI (MT4 [2]): >4.5
CC50 (MT4 [3]): > 100 µM

Cc1ncc([N+](=O)[O-])n1CCSC(c1ccccc1)c1cccc(F)c1 (stereo unspecified)
EC50 (MT4 [1]): 80 µM
SI (MT4 [2]): >1.2
CC50 (MT4 [3]): > 100 µM

Cc1ncc([N+](=O)[O-])n1CCOC(c1cccc(F)c1)c1cccs1 (stereo unspecified)
EC50 (MT4 [1]): 0.14 µM
SI (MT4 [2]): >714
CC50 (MT4 [3]): > 100 µM

Cc1nc([N+](=O)[O-])cn1CCOC(c1ccccc1)c1ccccc1
EC50 (MT4 [1]): 67 µM
SI (MT4 [2]): >1.5
CC50 (MT4 [3]): > 100 µM

Cc1ccccc1C(OCCn1c([N+](=O)[O-])cnc1C)c1cccs1 (stereo unspecified)
EC50 (MT4 [1]): 0.45 µM
SI (MT4 [2]): 204
CC50 (MT4 [3]): 92 µM
